Ki data for 14 compounds are collected here from ChEMBL document CHEMBL1770144, “Discovery of potent nucleotide-mimicking competitive inhibitors of hepatitis C virus NS3 helicase” (Bioorg Med Chem Lett, 2011).

The nature of test [1]: Competitive inhibition of Hepatitis C virus NS3 helicase. The arrangement: species or system Hepacivirus hominis.
Test [2] in a line: Competitive inhibition of Hepatitis C virus NS3 helicase using nucleic acid as substrate. The arrangement: species or system Hepacivirus hominis.

Broadly, the Ki is a dissociation constant, usually derived from enzyme kinetics or from competition with a known ligand. A high value points to a looser hold on the target.

Regarding `Cc1cc(NNC(=O)c2cnccn2)c2ccccc2n1`, the Ki in test [1] is above 300 µM.
Take `CCOc1ccc2nc(C)cc(NNC(=O)c3cnccn3)c2c1`: the Ki in test [1] was above 300 µM.
With `CCOc1ccc2c(NNS(=O)(=O)c3ccccc3)cc(C)nc2c1`, in test [1], the Ki amounted to 5 µM.
Still for that read-out and setting: as for `CCOc1ccc2c(NNS(=O)(=O)c3ccccn3)cc(C)nc2c1`, the figure is 0.3 µM.
Same read-out and setting: in the case of `CCOc1ccc2c(NNC(=O)c3ccco3)cc(C)nc2c1` it was above 300 µM; in that of `CCOc1ccc2c(NNC(=O)[C@@H]3CSCN3)cc(C)nc2c1`, above 300 µM; in that of `CCOc1ccc2c(NNC(=O)c3ccccc3)cc(C)nc2c1`, 125 µM.
Compound `CCOc1ccc2c(NNS(=O)(=O)c3ccccn3)c3c(nc2c1)CCCC3` displayed a Ki in test [1] of 0.1 µM.
As to `CCOc1ccc2c(NNC(=O)c3cnccn3)cc(C)nc2c1`, in test [1], the Ki came out at 0.75 µM.
As for `CCOc1ccc2c(NNS(=O)(=O)c3ccc(C)cc3)cc(C)nc2c1`, the inhibition constant (Ki) in test [1] came to 75 µM.
Same read-out and setting: in the case of `CCOc1ccc2c(NNS(=O)(=O)c3ccccc3)c3c(nc2c1)CCCC3` it was 0.16 µM; in that of `O=C(NNc1c2c(nc3ccccc13)CCCC2)c1cnccn1`, above 300 µM.
Regarding `CCOc1ccc2c(NNC(=O)c3cnccn3)c3c(nc2c1)CCCC3`, the inhibition constant Ki in test [1] and in test [2] was 0.02 µM in each case.
With `CCOc1ccc2c(NNC(=O)c3cc4ccccc4cn3)cc(C)nc2c1`, the Ki in test [1] stood at 250 µM.
